Data as given in ChEMBL document CHEMBL2321817, “Detecting allosteric sites of HIV-1 reverse transcriptase by X-ray crystallographic fragment screening” (J Med Chem, 2013).
One block for each molecule: values may come before it. Activity calls are given as the source filed them. The calls are words filed in the database; no cut-off is given here.

What was measured:
[1] = target: T1, Human immunodeficiency virus type 1 reverse transcriptase (Human immunodeficiency virus 1, UniProt Q72547); experiment: Inhibition of wild type HIV-1 reverse transcriptase knuckles site after 30 mins by fluorescence assay
[2] = target: T1, Human immunodeficiency virus type 1 reverse transcriptase; experiment: Inhibition of wild type HIV-1 reverse transcriptase 507 site incubated after 30 mins by fluorescence assay
[3] = target: Human immunodeficiency virus type 1 reverse transcriptase (Human immunodeficiency virus 1) (UniProt Q72547); experiment: Inhibition of wild type HIV-1 reverse transcriptase 428 site at 1 mM after 30 mins by fluorescence assay relative to control
[4] = target: Human immunodeficiency virus type 1 reverse transcriptase (Human immunodeficiency virus 1) (UniProt Q72547); experiment: Inhibition of wild type HIV-1 reverse transcriptase p66/p51 399 site after 30 mins by fluorescence assay
[5] = target: Human immunodeficiency virus type 1 reverse transcriptase (Human immunodeficiency virus 1) (UniProt Q72547); experiment: Inhibition of wild type HIV-1 reverse transcriptase knuckles site at 1 mM after 30 mins by fluorescence assay
[6] = target: Human immunodeficiency virus type 1 reverse transcriptase (Human immunodeficiency virus 1) (UniProt Q72547); experiment: Inhibition of wild type HIV-1 reverse transcriptase RNase H primer grip adjacent site after 30 mins by fluorescence assay
[7] = target: T1, Human immunodeficiency virus type 1 reverse transcriptase; experiment: Inhibition of wild type HIV-1 reverse transcriptase p66/p51 NNRTI adjacent binding site after 30 mins by fluorescence assay
[8] = target: T1, Human immunodeficiency virus type 1 reverse transcriptase; experiment: Inhibition of wild type HIV-1 reverse transcriptase incoming nucleotide binding site after 30 mins by fluorescence assay

SMILES: Oc1ccc(OC(F)(F)F)cc1
- IC50 [1]: 600 µM

SMILES: CN(CC(=O)N1CCCc2ccccc21)Cc1nc(=O)c2ccccc2[nH]1
- IC50 [2]: 150 µM

SMILES: NCC(=O)Nc1ccc2[nH]c(=O)[nH]c2c1
- inhibition [3]: 30%

- inhibition [4]: inactive
SMILES: Cc1c(CO)cnn1-c1ccc(F)cc1

- inhibition [5]: inactive
SMILES: NCc1ccc(OC(F)(F)F)cc1

- inhibition [6]: inactive
SMILES: Cn1ncc(C(=O)O)c1-c1ccccc1

SMILES: CCOC(=O)c1cnn2ccccc12
- IC50 [7]: 350 µM

SMILES: CN1CCN(c2ccc(C(=O)O)cc2)CC1
- IC50 [8]: 200 µM
